Data as given in patent US12492200B2, “NLRP3 modulators” (INNATE TUMOR IMMUNITY, INC., priority 2020, dated 2025).

Experiments:
Assay type in all cases: cell-based
[1] = molecular target: T1, human TLR8 (Homo sapiens, UniProt Q9NR97); test: In vitro human TLR8 reporter assay (HEK-Blue cells, NF-kB/AP1-inducible SEAP); settings: TLR8 agonist EC50, HEK-Blue TLR8 NF-kB-SEAP reporter cells
T1 construct: host or cells: HEK-Blue cells (human HEK) co-expressing TLR8 and an NF-kB/AP1-inducible SEAP reporter
T1 sequence (Q9NR97 27-1041): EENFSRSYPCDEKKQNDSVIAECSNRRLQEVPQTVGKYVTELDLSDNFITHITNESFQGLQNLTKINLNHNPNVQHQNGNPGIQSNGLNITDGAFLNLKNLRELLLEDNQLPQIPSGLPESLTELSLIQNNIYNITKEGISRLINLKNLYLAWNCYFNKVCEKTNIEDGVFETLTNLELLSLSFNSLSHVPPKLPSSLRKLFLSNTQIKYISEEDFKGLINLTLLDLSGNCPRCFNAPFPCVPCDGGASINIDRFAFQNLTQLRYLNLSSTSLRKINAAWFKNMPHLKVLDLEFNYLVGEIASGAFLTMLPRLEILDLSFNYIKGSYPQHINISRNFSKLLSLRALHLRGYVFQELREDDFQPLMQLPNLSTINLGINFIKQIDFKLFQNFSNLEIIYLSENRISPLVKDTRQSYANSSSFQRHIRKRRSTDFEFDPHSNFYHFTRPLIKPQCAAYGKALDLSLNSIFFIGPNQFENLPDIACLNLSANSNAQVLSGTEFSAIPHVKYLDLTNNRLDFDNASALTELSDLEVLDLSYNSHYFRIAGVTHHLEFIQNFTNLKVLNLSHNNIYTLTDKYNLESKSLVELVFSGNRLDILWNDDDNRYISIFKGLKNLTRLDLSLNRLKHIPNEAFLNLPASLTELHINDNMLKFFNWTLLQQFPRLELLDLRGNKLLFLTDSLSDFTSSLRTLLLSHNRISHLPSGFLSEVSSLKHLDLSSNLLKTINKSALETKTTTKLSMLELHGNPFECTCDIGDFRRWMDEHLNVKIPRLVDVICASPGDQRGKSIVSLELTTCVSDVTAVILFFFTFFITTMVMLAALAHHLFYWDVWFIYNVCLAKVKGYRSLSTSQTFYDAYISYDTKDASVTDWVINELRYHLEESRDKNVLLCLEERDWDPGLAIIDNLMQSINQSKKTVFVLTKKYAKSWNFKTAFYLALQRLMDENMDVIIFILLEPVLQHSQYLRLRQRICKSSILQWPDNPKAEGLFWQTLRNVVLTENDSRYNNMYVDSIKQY
Protocol: (§1) Logarithmically-growing human HEK-Blue cells co-expressing a TLR7 or TLR8 gene and a NF-kB/AP1-inducible SEAP (secreted embryonic alkaline phosphatase; Invivogen, San Diego, CA) reporter gene are added to individual wells of a 384-well plate (15,000 cells per 20 μL per well) and maintained for 24 h at 37° C., 5% CO2. Test compounds or DMSO are distributed to separate wells the next day using acoustic liquid handling technology (100 nL per well) and cells are subsequently incubated for 18 h at 37° C., 5% CO2. Cellular SEAP production is measured using an Envision plate reader instrument thirty minutes after adding freshly-made Quanti-Blue reagent (prepared by following manufacturer instructions; Invivogen, San Diego, CA) to the HEK-Blue TLR Nf-kB-SEAP cell reactions. All EC50 values (half-maximal effective concentration) are determined using proprietary data analysis software. Normalized EC50 value=absolute value determined by setting 100% Ymax using a reference standard RLU (relative light unit) values from cells treated with 50 μM of the reference standard.

[2] = molecular target: T2, NLRP3 (Homo sapiens, UniProt Q96P20); test: Measurement of IL-1β production (NLRP3 hIL1β EC50), PMA-differentiated THP-1 cells; settings: human IL-1β production; assayed using one or more of the described procedures
T2 construct: host or cells: PMA-differentiated THP-1 cells
Protocol: THP-1 cells were purchased from the American Type Culture Collection and sub-cultured according to instructions from the supplier. Prior to experiments, cells were cultured in RPMI 1640 containing 10% heat inactivated FBS, penicillin (100 units/ml) and streptomycin (100 μg/ml), and maintained in log phase prior to experimental setup. Prior to the experiment THIP-1 were treated with PMA (Phorbol 12-myristate 13-acetate) (10 μg/ml) for 24 hours. The day of the experiment the media was removed and attaching cells were treated with trypsin for 2 minutes, cells were then collected, washed with PBS (phosphate buffer saline), spin down, resuspended in 2% heat inactivated FBS with RPMI at a concentration of 1×10^6 cells/ml, and 100 μl was plated in a 96 well plate. Compounds were dissolved in dimethyl sulfoxide (DMSO) and added to the culture medium to achieve desired concentration (e.g. 100, 30, 10, 3, 1, 0.3 or 0.1 μM). Cells were incubated with compounds for 4 hours. Cell free supernatant was collected and the production of IL-1β was evaluated by ELISA. A vehicle only control was run concurrently with each experiment. Final DMSO concentration was 1%.
THP-1 cells were purchased from the American Type Culture Collection and sub-cultured according to instructions from the supplier. Prior to experiments, cells were cultured in RPMI 1640 containing 10% heat inactivated FBS, penicillin (100 units/ml), streptomycin (100 μg/ml), HEPES (10 mM) and sodium pyruvate (1 mM) and maintained in log phase prior to experimental setup. Prior to the experiment, THP-1 cells were treated with PMA (Phorbol 12-myristate 13-acetate) (20 μg/ml) overnight. The day of the experiment, the media was removed and attached cells were treated with trypsin for 2 minutes, cells were then collected, washed with PBS (phosphate buffer saline), pelleted by centrifugation and resuspended in 2% heat inactivated FBS with RPMI at a concentration of 50,000 cells/well in a 384 well plate. Cell free supernatant was collected and the production of IL-1β was evaluated by ELISA. Compounds were dissolved in dimethyl sulfoxide (DMSO) and added to the culture medium to achieve desired concentration (e.g. 100, 30, 10, 3, 1, 0.3 or 0.1 μM). Cells were incubated with compounds for 2 hours. A vehicle only control was run concurrently with each experiment. Final DMSO concentration was 1%.
Serial dilutions of compounds in DMSO were added to low volume 384 well plates at 100 nl/well using an ECHO 550 acoustic dispenser (Labcyte) to achieve final starting concentration of 10 μM in assay.
THP-1 cells in RPMI (Gibco, 11875) media with 10% FBS at a density of 1×10^6 cell/ml in a T175 flask were treated with a final concentration of phorbol 12-myristate 13-acetate (PMA) (Sigma,P1585) of 50 ng/ml overnight at 37° C. at 5% CO2 for differentiation. Cells were harvested the next day after rinsing well with dPBS using 0.5% trypsin. A cell solution was prepared of 1×10^6 cells/ml for 50,000 cells in 50 μl/well in RPMI media with 2% FBS. Cells were plated using a multichannel pipette onto the compound dilutions in Greiner, 384 well, black clear bottom tissue culture treated plates (781090). The plates were incubated in 37° C. incubator at 5% CO2 for 2 hours.
After the 2 hour incubation, the cell plates were spun in the centrifuge for 5 minutes at 1200 rpm. Using the Felix (CyBio), 8 μl of the supernatant was transferred to 384 well, low volume, white proxy plates. (Perkin Elmer, 6008230). A human IL1beta hTRF kit was used to analyze the supernatant (CISBIO, 62HIL1BPEG). The kit instructions were followed for preparing the IL1Beta standard curve and then the antibodies from the kit were diluted 1:40 rather than 1:20 as kit instructed. Once combined, the antibodies were added across the plates, 5 μl/well. The plates were sealed and incubated at 4° C. overnight. The plates were then read on the Perkin Elmer EnVision at 665/615 nm using the hTRF laser.

[3] = molecular target: T3, human TLR7 (Homo sapiens, UniProt Q9NYK1); test: In vitro human TLR7 reporter assay (HEK-Blue cells, NF-kB/AP1-inducible SEAP); settings: TLR7 agonist EC50, HEK-Blue TLR7 NF-kB-SEAP reporter cells
T3 construct: host or cells: HEK-Blue cells (human HEK) co-expressing TLR7 and an NF-kB/AP1-inducible SEAP reporter
T3 sequence (Q9NYK1 27-1049): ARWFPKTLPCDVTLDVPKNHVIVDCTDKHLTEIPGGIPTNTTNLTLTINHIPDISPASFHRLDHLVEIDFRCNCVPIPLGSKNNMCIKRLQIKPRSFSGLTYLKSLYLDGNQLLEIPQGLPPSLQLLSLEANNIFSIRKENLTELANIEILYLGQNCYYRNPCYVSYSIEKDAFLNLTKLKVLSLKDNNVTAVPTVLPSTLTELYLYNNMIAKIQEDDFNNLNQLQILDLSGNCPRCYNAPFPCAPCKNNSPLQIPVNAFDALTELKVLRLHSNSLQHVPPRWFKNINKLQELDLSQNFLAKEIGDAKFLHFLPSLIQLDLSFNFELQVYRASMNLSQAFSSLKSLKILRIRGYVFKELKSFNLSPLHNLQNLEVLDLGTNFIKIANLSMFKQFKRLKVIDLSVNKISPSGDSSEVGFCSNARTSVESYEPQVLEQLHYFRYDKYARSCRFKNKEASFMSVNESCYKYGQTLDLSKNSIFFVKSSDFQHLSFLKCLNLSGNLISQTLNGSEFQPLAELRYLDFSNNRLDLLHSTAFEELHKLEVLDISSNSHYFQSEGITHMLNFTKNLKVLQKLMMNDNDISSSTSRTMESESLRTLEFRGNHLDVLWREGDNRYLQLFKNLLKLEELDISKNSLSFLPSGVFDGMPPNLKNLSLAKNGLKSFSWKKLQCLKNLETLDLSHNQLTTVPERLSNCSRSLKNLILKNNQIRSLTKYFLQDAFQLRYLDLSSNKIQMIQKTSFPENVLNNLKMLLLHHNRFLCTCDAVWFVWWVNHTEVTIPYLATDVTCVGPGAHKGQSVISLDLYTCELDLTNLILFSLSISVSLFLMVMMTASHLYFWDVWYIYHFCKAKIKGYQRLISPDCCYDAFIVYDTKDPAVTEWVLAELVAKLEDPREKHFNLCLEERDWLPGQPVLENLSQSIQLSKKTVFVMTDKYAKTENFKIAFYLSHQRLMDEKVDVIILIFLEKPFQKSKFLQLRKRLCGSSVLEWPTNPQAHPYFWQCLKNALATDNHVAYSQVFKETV
Protocol: as §1

T2 sequence (Q96P20 whole entry): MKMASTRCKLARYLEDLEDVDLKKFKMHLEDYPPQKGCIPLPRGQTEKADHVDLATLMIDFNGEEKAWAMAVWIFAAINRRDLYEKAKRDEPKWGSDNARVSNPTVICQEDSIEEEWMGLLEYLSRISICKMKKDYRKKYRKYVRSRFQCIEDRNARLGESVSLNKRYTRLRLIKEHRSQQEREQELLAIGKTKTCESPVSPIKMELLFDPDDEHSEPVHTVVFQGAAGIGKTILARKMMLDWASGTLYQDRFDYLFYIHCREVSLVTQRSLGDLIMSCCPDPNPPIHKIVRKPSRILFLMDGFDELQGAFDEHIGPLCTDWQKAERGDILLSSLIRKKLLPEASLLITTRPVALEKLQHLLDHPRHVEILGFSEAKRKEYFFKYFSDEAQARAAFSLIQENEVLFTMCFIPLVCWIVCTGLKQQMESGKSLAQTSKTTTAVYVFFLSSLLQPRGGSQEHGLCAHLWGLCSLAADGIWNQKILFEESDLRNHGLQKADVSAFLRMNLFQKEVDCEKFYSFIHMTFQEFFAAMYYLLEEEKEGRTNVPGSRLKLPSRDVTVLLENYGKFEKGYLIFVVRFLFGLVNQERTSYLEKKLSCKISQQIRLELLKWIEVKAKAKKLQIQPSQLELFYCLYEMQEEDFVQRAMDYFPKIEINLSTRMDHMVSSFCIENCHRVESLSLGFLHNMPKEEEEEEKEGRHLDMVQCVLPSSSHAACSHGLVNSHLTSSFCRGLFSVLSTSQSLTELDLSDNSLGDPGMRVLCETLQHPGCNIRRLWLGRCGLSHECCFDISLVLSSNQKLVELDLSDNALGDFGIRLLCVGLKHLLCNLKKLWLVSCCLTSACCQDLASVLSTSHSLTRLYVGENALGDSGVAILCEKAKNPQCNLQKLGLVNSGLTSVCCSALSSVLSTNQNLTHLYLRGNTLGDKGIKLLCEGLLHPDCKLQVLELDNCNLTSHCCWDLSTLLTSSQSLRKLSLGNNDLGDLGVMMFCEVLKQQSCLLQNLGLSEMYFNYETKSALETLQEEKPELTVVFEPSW

| Structure (SMILES) | EC50 [1] [µM] | EC50 [2] [µM] | EC50 [3] [µM] |
| --- | --- | --- | --- |
| CC(C)(C)OC(=O)N1CCC[C@H](c2nc3c(N)nc4cc(-c5cc[nH]n5)ccc4c3[nH]2)C1 [Example 1, tert-Butyl (S)-3-(4-amino-7-(1H-pyrazol-3-yl)-1H-imidazo[4,5-c]quinolin-2-yl)piperidine-1-carboxylate] | 10 | 0.33 |  |
| N#CC1(C(=O)N2CCC[C@H](c3nc4c(N)nc5cc(-c6cc[nH]n6)ccc5c4[nH]3)C2)CC1 [Example 3, (S)-1-(3-(4-Amino-7-(1H-pyrazol-3-yl)-1H-imidazo[4,5-c]quinolin-2-yl)piperidine-1-carbonyl)cyclopropane-1-carbonitrile] |  | 0.98 | 0.62 |
| CC(C)(C)OC(=O)N1CCC[C@@H](c2nc3c(N)nc4cc(-c5cc[nH]n5)ccc4c3[nH]2)C1 [Example 6, tert-Butyl (R)-3-(4-amino-7-(1H-pyrazol-3-yl)-1H-imidazo[4,5-c]quinolin-2-yl)piperidine-1-carboxylate] | 10 | 0.36 |  |
| CC(C)(C)C(=O)N1CCC[C@H](c2nc3c(N)nc4cc(-c5cc[nH]n5)ccc4c3[nH]2)C1 [Example 28] | 47 | 1.2 |  |
| N#CC1(C(=O)N2CCC[C@H](c3nc4c(N)nc5cc(-c6cc[nH]n6)ccc5c4[nH]3)C2)CCCCC1 [Example 38] | 17 | 2 |  |
| N#CC1(C(=O)N2CCC[C@H](c3nc4c(N)nc5cc(-c6cc[nH]n6)ccc5c4[nH]3)C2)CCCC1 [Example 39] |  | 2.5 | 35 |
| Nc1nc2cc(-c3cc[nH]n3)ccc2c2[nH]c([C@H]3CCCN(C(=O)Cc4ccccc4)C3)nc12 [Example 40] |  | 3.8 | 58 |
| N#CC1(C(=O)N2CCC[C@@H](c3nc4c(N)nc5cc(-c6cc[nH]n6)ccc5c4[nH]3)C2)CCCC1 [Example 70] |  | 3.9 | 57 |
| CC(C)CC(=O)N1CCC[C@H]1Cc1nc2c(N)nc3cc(-c4cc[nH]n4)ccc3c2[nH]1 [Example 87] | 77 | 4.3 |  |
